Measurements: EP2957607B1, “IMAGE FORMING METHOD” (Konica Minolta, Inc., priority 2014, dated 2015)

Assay: pKa value (acid dissociation constant) of the adsorption inhibitor
Type: physicochemical
Excerpt: The pKa value is also called the acid dissociation constant, which can be determined by a conventional method. The pKa value can be determined by, for example, the method described in Jikken Kagaku Koza 5, Netsuteki Sokutei oyobi Heiko (Experimental Chemistry Lecture 5, Thermal Measurements and Equilibrium), page 460, edited by The Chemical Society of Japan, Maruzen Co., Ltd.

pKa: < 5.5
Compound: O=C(O)CC(O)C(=O)O (stereo not shown) [malic acid, Malic acid]
